Active and inactive are the calls of the source. A value given as a limit tells only on which side of the number the result lay.

Test [1] deals with Apoptotic protease-activating factor 1 (Homo sapiens, UniProt O14727). The class given is functional.
In test [2] the target is T1, Aminopeptidase N (Plasmodium falciparum FcB1/Columbia, UniProt O96935).
T1 sequence (O96935 whole entry): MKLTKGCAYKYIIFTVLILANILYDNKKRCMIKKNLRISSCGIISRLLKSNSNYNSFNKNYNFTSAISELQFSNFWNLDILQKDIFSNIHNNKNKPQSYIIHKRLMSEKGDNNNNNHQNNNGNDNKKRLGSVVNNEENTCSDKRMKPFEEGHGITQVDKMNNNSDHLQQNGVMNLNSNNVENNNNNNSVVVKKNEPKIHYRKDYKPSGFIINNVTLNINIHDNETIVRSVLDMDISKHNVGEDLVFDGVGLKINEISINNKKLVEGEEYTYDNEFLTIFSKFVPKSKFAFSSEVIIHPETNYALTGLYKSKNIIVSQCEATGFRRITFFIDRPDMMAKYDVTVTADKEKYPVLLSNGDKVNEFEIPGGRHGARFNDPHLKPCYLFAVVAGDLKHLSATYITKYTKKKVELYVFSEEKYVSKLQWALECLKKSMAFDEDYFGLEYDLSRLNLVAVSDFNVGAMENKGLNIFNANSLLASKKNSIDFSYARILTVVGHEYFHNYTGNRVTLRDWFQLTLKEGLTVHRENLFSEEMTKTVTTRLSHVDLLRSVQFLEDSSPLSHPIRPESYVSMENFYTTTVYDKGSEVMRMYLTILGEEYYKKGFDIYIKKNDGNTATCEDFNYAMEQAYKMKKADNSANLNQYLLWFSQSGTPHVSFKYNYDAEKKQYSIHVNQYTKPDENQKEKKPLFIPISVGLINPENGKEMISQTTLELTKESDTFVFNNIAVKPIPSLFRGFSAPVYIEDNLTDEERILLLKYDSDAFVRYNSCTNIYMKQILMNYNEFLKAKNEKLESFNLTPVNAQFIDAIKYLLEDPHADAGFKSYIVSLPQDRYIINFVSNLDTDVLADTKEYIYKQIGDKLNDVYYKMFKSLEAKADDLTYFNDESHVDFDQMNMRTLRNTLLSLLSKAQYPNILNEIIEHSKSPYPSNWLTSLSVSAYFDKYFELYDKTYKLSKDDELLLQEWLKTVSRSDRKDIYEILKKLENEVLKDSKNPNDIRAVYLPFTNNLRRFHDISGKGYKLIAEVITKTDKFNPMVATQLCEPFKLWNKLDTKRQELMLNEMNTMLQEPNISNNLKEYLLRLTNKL
Put plainly: malaria alanyl aminopeptidase activity blockers – biochemical, fluorogenic H-Leu-NHMec substrate, 1536-well (AID 1445). The arrangement: species or system Plasmodium falciparum 3D7, 3D7.

Test [3] has as its system Streptococcus sp. 'group A'. Put plainly: Streptococcus pyogenes SK(-)GAS viability under kanamycin – luminescence, BacTiterGlo, confirmation, counter-screen for streptokinase expression inhibitor project, dose response (AID 1900). The class given is functional, organism-based. In general terms: The purpose of a counterscreen is to sort out artefacts and off-target activity.

In test [4] the target is Vascular endothelial growth factor receptor 2 (Homo sapiens, UniProt P35968). The class given is functional.
Sequence of Vascular endothelial growth factor receptor 2 (P35968 whole entry): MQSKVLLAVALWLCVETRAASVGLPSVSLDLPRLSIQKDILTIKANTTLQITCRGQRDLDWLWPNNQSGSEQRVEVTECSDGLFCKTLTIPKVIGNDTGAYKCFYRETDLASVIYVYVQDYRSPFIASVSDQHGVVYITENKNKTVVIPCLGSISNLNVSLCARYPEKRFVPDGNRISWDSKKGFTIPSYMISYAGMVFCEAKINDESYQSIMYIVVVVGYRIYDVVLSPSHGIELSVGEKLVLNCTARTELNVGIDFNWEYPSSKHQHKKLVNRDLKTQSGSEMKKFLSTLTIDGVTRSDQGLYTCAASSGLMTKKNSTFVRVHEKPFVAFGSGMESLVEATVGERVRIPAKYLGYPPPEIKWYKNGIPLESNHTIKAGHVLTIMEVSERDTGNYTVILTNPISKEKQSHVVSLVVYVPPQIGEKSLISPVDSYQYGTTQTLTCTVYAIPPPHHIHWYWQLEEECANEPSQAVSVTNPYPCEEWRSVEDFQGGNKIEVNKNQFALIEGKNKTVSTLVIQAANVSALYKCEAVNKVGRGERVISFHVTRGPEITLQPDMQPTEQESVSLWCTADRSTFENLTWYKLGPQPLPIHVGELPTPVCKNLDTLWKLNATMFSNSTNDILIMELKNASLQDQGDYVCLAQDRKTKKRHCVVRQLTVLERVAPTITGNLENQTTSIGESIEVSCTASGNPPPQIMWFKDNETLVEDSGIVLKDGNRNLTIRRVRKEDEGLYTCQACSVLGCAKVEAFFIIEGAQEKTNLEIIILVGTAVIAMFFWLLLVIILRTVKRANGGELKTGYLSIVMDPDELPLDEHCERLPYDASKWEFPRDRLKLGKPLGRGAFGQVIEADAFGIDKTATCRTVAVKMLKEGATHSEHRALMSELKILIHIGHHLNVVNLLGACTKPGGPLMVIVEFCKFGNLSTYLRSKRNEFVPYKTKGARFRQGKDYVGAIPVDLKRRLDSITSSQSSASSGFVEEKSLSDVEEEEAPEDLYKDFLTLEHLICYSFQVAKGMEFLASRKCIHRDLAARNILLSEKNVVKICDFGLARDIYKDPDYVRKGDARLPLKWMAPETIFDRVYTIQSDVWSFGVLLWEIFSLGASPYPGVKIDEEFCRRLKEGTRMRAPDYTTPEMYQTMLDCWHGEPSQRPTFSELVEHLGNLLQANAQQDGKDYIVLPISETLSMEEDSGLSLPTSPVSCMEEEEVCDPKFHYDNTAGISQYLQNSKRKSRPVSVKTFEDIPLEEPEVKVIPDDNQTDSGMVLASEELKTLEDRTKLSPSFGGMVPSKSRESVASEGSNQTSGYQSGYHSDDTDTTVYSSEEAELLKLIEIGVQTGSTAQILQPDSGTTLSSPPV
Test [5] deals with RAC-gamma serine/threonine-protein kinase (Homo sapiens, UniProt Q9Y243). Format: functional.
For test [6], the target named is Calcium/calmodulin-dependent protein kinase type II subunit gamma (Homo sapiens, UniProt Q13555). The class given is functional.
Sequence of Calcium/calmodulin-dependent protein kinase type II subunit gamma (Q13555 whole entry): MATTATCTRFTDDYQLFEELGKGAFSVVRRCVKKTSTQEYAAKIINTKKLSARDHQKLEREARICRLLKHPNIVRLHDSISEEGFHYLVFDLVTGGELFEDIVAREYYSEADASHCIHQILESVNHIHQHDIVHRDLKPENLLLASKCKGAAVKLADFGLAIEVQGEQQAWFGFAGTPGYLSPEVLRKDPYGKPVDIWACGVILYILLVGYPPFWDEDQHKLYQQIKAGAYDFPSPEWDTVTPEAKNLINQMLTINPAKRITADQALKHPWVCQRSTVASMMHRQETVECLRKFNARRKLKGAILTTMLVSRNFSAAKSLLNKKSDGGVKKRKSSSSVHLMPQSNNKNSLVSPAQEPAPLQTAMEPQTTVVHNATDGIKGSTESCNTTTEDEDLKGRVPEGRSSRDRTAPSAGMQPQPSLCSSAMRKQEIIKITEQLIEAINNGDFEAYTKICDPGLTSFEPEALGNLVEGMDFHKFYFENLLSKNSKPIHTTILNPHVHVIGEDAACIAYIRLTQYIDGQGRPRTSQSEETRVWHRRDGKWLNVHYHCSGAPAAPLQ
Test [7] has as its target Serine/threonine-protein kinase Chk2 (Homo sapiens, UniProt O96017). The class given is functional.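 Note: CHEK2 entry within a kinome-wide screening panel.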
The target of test [8] is SRSF protein kinase 1 (Homo sapiens, UniProt Q96SB4). The class given is functional.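 Note: measured as one member of a kinome-wide kinase profiling panel.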
Test [9] has as its target Casein kinase II subunit alpha (Homo sapiens, UniProt P68400). The class given is functional.
The target of test [10] is Calcium/calmodulin-dependent protein kinase type II subunit delta (Homo sapiens, UniProt Q13557). Format: functional.
Sequence of Calcium/calmodulin-dependent protein kinase type II subunit delta (Q13557 whole entry, canonical isoform): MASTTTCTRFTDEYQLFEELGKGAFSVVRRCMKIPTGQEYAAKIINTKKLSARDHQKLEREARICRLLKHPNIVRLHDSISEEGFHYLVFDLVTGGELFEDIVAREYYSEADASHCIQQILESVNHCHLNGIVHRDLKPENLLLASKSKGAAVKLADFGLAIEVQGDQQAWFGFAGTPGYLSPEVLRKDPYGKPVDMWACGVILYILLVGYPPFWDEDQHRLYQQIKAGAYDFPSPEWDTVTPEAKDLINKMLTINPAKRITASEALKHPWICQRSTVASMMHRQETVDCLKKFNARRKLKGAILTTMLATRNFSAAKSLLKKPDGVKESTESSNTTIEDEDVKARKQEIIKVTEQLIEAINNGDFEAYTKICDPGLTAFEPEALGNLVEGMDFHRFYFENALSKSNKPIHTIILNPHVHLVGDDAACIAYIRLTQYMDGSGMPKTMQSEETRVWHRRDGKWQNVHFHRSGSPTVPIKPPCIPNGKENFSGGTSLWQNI
The target in test [11] is Casein kinase I isoform gamma-1 (Homo sapiens, UniProt Q9HCP0). Format: functional.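 Note: measured as the CSNK1G1 member of a kinome profiling panel.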
Test [12] has as its target Serine/threonine-protein kinase N2 (Homo sapiens, UniProt Q16513). The class given is functional.
For test [13], the target named is Mitogen-activated protein kinase 13 (Homo sapiens, UniProt O15264). The class given is functional.
Sequence of Mitogen-activated protein kinase 13 (O15264 whole entry): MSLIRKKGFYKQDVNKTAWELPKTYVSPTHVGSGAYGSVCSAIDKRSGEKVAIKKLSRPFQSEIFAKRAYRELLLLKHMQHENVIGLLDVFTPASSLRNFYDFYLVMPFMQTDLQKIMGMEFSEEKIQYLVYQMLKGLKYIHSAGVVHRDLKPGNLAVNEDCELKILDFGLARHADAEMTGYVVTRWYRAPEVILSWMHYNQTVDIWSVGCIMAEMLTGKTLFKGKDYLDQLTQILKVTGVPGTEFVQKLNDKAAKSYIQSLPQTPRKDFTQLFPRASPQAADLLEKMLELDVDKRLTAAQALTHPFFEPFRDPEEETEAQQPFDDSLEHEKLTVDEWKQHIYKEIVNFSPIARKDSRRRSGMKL
Test [14] addresses Mitogen-activated protein kinase kinase kinase 20 (Homo sapiens, UniProt Q9NYL2). The class given is functional.
Test [15] concerns the target Maternal embryonic leucine zipper kinase (Homo sapiens, UniProt Q14680). Format: functional.
Test [16] deals with RAC-alpha serine/threonine-protein kinase (Homo sapiens, UniProt P31749). Format: functional.
Test [17] concerns the target Tyrosine-protein kinase Fer (Homo sapiens, UniProt P16591). Format: functional.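 Note: FER tested as one member of a kinome panel.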
In test [18] the target is Homeodomain-interacting protein kinase 4 (Homo sapiens, UniProt Q8NE63). The class given is functional.
Test [19] concerns the target 3-phosphoinositide-dependent protein kinase 1 (Homo sapiens, UniProt O15530). The class given is functional.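 Note: value comes from the Navigating the Kinome panel, PDPK1 member.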
The target in test [20] is Fibroblast growth factor receptor 3 (Homo sapiens, UniProt P22607). Format: functional.
The target of test [21] is Serine/threonine-protein kinase MRCK alpha (Homo sapiens, UniProt Q5VT25). Format: functional.
Sequence of Serine/threonine-protein kinase MRCK alpha (Q5VT25 whole entry): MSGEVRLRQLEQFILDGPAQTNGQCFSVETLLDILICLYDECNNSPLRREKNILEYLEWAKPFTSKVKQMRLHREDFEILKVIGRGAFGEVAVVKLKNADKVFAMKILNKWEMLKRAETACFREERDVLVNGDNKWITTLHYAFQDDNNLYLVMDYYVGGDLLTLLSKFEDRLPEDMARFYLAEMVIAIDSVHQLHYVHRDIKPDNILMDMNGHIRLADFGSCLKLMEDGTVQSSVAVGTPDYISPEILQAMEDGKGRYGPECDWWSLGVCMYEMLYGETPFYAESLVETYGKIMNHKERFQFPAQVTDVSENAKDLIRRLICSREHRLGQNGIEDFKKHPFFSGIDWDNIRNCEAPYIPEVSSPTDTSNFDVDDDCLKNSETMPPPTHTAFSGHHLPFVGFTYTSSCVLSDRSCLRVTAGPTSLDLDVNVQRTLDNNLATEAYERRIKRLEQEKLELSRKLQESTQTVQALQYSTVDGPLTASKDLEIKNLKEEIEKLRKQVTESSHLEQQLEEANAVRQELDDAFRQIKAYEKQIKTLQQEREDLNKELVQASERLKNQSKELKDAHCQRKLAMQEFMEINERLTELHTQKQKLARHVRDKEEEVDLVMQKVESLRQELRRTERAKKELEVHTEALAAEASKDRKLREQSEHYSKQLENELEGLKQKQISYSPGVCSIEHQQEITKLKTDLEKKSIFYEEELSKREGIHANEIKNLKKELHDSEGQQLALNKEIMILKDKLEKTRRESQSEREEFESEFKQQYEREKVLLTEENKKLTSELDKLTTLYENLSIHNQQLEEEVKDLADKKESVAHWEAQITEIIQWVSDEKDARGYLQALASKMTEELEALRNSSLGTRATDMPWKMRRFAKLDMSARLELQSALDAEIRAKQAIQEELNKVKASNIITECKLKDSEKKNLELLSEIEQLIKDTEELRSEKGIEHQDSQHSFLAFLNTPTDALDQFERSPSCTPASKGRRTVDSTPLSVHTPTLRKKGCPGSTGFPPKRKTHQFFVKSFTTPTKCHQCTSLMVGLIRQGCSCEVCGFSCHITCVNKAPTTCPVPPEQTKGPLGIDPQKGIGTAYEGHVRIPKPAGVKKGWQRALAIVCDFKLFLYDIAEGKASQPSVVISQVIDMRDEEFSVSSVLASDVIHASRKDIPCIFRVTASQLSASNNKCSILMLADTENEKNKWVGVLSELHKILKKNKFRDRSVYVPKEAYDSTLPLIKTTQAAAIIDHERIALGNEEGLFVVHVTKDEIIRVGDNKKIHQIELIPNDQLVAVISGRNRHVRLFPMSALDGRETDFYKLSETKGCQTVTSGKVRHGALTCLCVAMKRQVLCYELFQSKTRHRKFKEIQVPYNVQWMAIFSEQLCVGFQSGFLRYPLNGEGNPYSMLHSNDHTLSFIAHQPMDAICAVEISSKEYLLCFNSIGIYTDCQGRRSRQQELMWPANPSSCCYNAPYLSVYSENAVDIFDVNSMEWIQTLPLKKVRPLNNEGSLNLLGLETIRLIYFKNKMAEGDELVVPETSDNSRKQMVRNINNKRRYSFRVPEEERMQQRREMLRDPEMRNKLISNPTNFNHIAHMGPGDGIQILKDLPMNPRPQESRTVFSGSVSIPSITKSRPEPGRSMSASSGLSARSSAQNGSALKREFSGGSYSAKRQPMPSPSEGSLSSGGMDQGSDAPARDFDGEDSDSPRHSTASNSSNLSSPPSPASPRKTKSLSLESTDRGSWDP
The target of test [22] is Serine/threonine-protein kinase BRSK1 (Homo sapiens, UniProt Q8TDC3). Format: functional.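 Note: measured within a kinome-wide kinase panel, with the target listed as KIAA1811.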
Test [23] addresses Tyrosine-protein kinase FRK (Homo sapiens, UniProt P42685). The class given is functional.

Sequence of Tyrosine-protein kinase FRK (P42685 whole entry): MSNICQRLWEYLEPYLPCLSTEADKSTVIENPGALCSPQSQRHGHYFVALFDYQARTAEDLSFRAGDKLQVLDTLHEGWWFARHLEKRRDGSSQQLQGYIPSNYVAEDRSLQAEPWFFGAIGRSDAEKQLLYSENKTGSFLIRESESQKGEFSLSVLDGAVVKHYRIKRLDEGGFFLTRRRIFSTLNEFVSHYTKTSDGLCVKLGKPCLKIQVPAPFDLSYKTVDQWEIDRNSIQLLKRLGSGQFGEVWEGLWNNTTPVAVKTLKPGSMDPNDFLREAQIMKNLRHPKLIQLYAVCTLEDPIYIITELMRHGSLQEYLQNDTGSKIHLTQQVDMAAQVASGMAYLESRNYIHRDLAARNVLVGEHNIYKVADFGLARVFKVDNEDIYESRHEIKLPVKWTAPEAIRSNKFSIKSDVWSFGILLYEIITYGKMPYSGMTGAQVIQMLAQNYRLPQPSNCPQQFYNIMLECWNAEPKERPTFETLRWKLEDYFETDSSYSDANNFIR

With `Cc1ccc(NC2=C(NCCO)C(=O)c3ccccc3C2=O)cc1`, the concentration for half-maximal inhibition (IC50) in test [1] was 15700 nM (active).
`CC(/C=C1\SC(=S)N(NS(=O)(=O)c2ccc(C)cc2)C1=O)=C\c1ccccc1`: in test [2], the IC50 was 64000 nM (active). For the same compound, in test [3], the half-maximal effective concentration (EC50) was 1410 nM (active).
With `COc1ccc(C2=NNc3cccc4c(OC)ccc2c34)cc1OC`, the Ki in test [4] was > 2510 nM (inactive).
As to `CN1CCC(c2c(O)cc(O)c3c(=O)cc(-c4ccccc4Cl)oc23)C(O)C1` (stereo unspecified), the Ki in test [5] is > 10000 nM (inactive); in [6], 1000 nM (active); in test [7], > 1580 nM (inactive); in test [8] it was 501 nM (active); in [9] it was > 6310 nM (inactive); in [10], 2000 nM (active). Moreover, the Ki in test [11] is > 6310 nM (inactive); in test [12], 5010 nM (active); in [13], 501 nM (active); in test [14] it was > 7940 nM (inactive); in [15], > 2000 nM (inactive); in test [16], > 7940 nM (inactive). Also, the Ki in [17] was > 1580 nM (inactive); in test [18], > 7940 nM (inactive); in test [19], > 3980 nM (inactive); in test [20], > 2000 nM (inactive); in test [21] it was 631 nM (active); in test [22], > 10000 nM (inactive). Besides, the Ki in test [23] was > 2510 nM (inactive). For the same compound, the pKi in [6] was determined as 6; in test [10] it was 5.7; in [21] it was 6.2.

One may read the IC50 as the concentration that inhibits the measured activity by half. The EC50 is the concentration at which the effect is half-maximal. What is called Ki is the equilibrium dissociation constant of an inhibitor or competing ligand from its target. For orientation: pKi means the negative decadic logarithm of the Ki, by convention in mol/L.

(Values after ChEMBL document CHEMBL1201862, “PubChem BioAssay data set” (2004).)
